Article PMC8765781, “A platform of assays for the discovery of anti-Zika small-molecules with activity in a 3D-bioprinted outer-blood-retina model” (PLoS ONE, 2022)
Like-named read-outs stand apart in the source and are kept apart here.

How the values were obtained:
[1] = system: ZIKV-RLuc (Cambodian strain FSS13025); assay: microbe, parasite or virus in culture; format: cell-based, Zika virus; settings: for AC50: Zika virus, Vero
[2] = read-out: Log AC50 (M) (converted)

SMILES	CC-v2 (curve class classification v2 of the dose response curve) [1]	Efficacy (difference between neutral response and maximum compound response) [1]	Max Resp (difference between neutral response and compound response for highest compound concentration) [1]	AC50 [1]	AC50 [1, 2]	AC50 (Vero cells)	Log AC50 (M) (Vero cells)
COc1ccc2c(c1)CN(C(=O)CCN1CCC(Cc3ccccc3)CC1)CCS2 [NCGC00384450-01]	-3	-97.233	-83.243	3.69e-05 M	3.69e-05 M	36.9 µM	-4.4327 M
C/C=C(\C)C(=O)O[C@H]1CC2C(=C1C)[C@H]1OC(=O)[C@](C)(O)[C@]1(O)[C@H](OC(=O)CCC)C[C@@]2(C)OC(C)=O (stereo partly drawn) [NCGC00169033-03]	-1.1	-98.201	-99.812	2.29e-06 M	2.29e-06 M		-5.6408 M
CC(C)C[C@H](NC(=O)[C@H](CCc1ccccc1)NC(=O)CN1CCOCC1)C(=O)N[C@@H](Cc1ccccc1)C(=O)N[C@@H](CC(C)C)C(=O)[C@@]1(C)CO1 [NCGC00249613-01]	-1.1	-103.056	-99.72	2.33e-06 M	2.33e-06 M	2.33 µM	-5.6327 M
COC1C(O)C(OC2CCC3(C)C(CCC4C3CCC3(C)C(C5=CC(=O)OC5)CCC43O)C2)OC(C)C1OC1OC(COC2OC(CO)C(O)C(O)C2O)C(O)C(O)C1O (stereo not drawn) [NCGC00380220-01]	-1.1	-95.552	-99.662	1.29e-06 M	1.29e-06 M	1.29 µM	-5.8908 M
CC(C)(O)/C=C\C(=O)[C@](C)(O)[C@H]1[C@H](O)C[C@]2(C)[C@@H]3CC=C4[C@@H](C=C(O)C(=O)C4(C)C)[C@]3(C)C(=O)C[C@@]12C [NCGC00014911-01]	-1.1	-103.985	-99.739	3.29e-06 M	3.29e-06 M	3.29 µM	-5.4827 M
CCCCCCCCOc1ccccc1C(=O)Nc1ccc(C(=O)OCC[N+](C)(CC)CC)cc1.[Br-] [NCGC00163507-03]	-2.4	-66.096	-65.496	2.08e-05 M	2.08e-05 M	20.8 µM	-4.6827 M
CN(C)c1ccc(C(=O)NCCCCCCC(=O)NO)cc1 [NCGC00263617-05]	-1.1	-93.524	-92.631	1.04e-05 M	1.04e-05 M	10.4 µM	-4.9827 M
C/C(=C\CO)CC/C=C(\C)CCC(O)C(C)(O)CCCC(C)(O)CCCC(C)(O)CCCC(C)(O)CCCC(C)(O)CCCC(C)(O)CCCC(C)(C)O (stereo not drawn) [NCGC00381040-01]	-1.1	-92.604	-99.402	1.44e-06 M	1.44e-06 M	1.44 µM	-5.8408 M
C=C(C)[C@H]1CCC(C)=C[C@@H]1c1c(O)cc(CCCCC)cc1O [NCGC00385066-01]	-3	-124.845	-99.067	3.69e-05 M	3.69e-05 M	36.9 µM	-4.4327 M
Nc1nc(Nc2ccc([S+](N)(=O)[O-])cc2)nn1C(=O)c1c(F)cccc1F [NCGC00263151-01]	-2.1	-94.324	-90.046	1.65e-05 M	1.65e-05 M	16.5 µM	-4.7827 M
COc1c(C)cnc(Cn2cnc3c(Cl)nc(N)nc32)c1C [NCGC00247877-01]	-1.2	-34.341	-31.198	1.85e-07 M	1.85e-07 M	0.185 µM	-6.7327 M
CC(C)(C)OC(=O)N[C@@H](Cc1ccc(O[S+](=O)([O-])c2cccc3cnccc23)cc1)C(=O)N1CCCN(C(=O)OC(C)(C)C)CC1 [NCGC00348020-01]	-3	-104.596	-83.301	3.69e-05 M	3.69e-05 M	36.9 µM	-4.4327 M
C[C@@H](Oc1cc(-n2cnc3ccc(CN4CCN(C)CC4)cc32)sc1C(N)=O)c1ccccc1C(F)(F)F [NCGC00263112-01]	-2.1	-113.144	-99.466	6.76e-06 M	6.76e-06 M	6.76 µM	-5.1699 M
COc1cc([C@@H]2c3cc4c(cc3[C@H](O)[C@H]3COC(=O)[C@@H]23)OCO4)cc(OC)c1OC [NCGC00161923-04]	-1.2	-67.755	-62.284	2.93e-06 M	2.93e-06 M	2.93 µM	-5.5327 M
O=C(CCCCCCNC(=O)c1cnc(N(c2ccccc2)c2ccccc2)nc1)NO [NCGC00345802-01]	-2.1	-102.183	-84.021	1.85e-05 M	1.85e-05 M	18.5 µM	-4.7327 M
OCCN1CCN(CCCN2c3ccccc3Sc3ccc(C(F)(F)F)cc32)CC1 [NCGC00015436-11]	-3	-75.446	-79.581	2.61e-05 M	2.61e-05 M	26.1 µM	-4.5827 M
CCCN(CC1CC1)c1nc(C)nc(Nc2c(Cl)cc(Cl)cc2Cl)c1Cl [NCGC00015737-02]	-3	-116.403	-99.557	3.69e-05 M	3.69e-05 M	36.9 µM	-4.4327 M
O=C(NCc1ccccc1)c1csc(Nc2ccncn2)n1 [NCGC00187983-01]	-2.1	-99.244	-100.568	1.47e-05 M	1.47e-05 M	14.7 µM	-4.8327 M
O=C(O)C1=CO[C@@H](O[C@@H]2O[C@H](CO)[C@@H](O)[C@H](O)[C@H]2O)[C@@H]2C(CO)=CC[C@H]12 [NCGC00346663-03]	-3	-105.712	-86.968	2.56e-05 M	2.56e-05 M	25.6 µM	-4.5925 M
C=CC(=O)N1CCC[C@@H](n2nc(-c3ccc(Oc4ccccc4)cc3)c3c(N)ncnc32)C1 [NCGC00187912-02]		-91.422	-83.345	9.28e-06 M	9.27e-06 M	9.28 µM	-5.0327 M
